The target of experiment [1] is PKC. The experiment is described as follows: ability of representative compounds to activate PKC (Ki, Table 1; procedure similar to Kozikowski et al. J. Med. Chem. 1997). It is filed as binding. As to conditions: read-out: Ki ± SEM.
Experiment [2] concerns PKC. As to conditions: background statement; cited from earlier work.

For the compound `CC(C)[C@H]1C(=O)N[C@H](CO)[C@@H]1c1ccccc1` [Compound 4a, (3R, 4S, 5S)-3-Isopropyl-4-phenyl-5-(hydroxymethyl)pyrrolidin-2-one], on PKC [1], the inhibition constant (Ki) is 129 µM.
For `CCCCCCCCCc1ccc([C@@H]2[C@@H](C(C)C)C(=O)N[C@@H]2CO)cc1` [Compound 4b, (3R, 4S, 5S)-3-Isopropyl-4-(4-nonylphenyl)-5-(hydroxymethyl)-pyrrolidin-2-one], the Ki on PKC [1] was determined as 2.3 ± 0.2 µM.
Consider `CC(C)[C@H]1C(=O)N[C@H](CO)[C@@H]1c1cccc2ccccc12` [Compound 11a, (3R,4S,5S)-3-Isopropyl-4-(1-naphthyl)-5-(hydroxymethyl)pyrrolidin-2-one], for which the Ki on PKC [1] turned out to be 5.5 µM.
For the compound `CCCCCC(=O)Oc1ccc([C@@H]2[C@@H](C(C)C)C(=O)N[C@@H]2CO)c2ccccc12` [Compound 11b, (3R,4S,5S)-3-Isopropyl-4-(4-hexanoyloxynaphth-1-yl)-5-(hydroxymethyl)pyrrolidin-2-one], the Ki on PKC [1] came to 0.5 ± 0.04 µM.
For `CC1=C[C@H]2[C@@]3(O)[C@H](C)C[C@]4(OC(=O)Cc5ccccc5)[C@H]([C@@H]3C=C(CO)C[C@]2(O)C1=O)C4(C)C` [Dpp, 12-deoxyphorbol 13-phenylacetate], the “PKC activation, isozyme selectivity” value in the experiment with PKC [2] was “isozyme-selective activators of PKC”.

By Ki is commonly meant the equilibrium dissociation constant of an inhibitor or competing ligand from its target.

The values are drawn from US5962504A, “Substituted 2-pyrrolidinone activators of PKC” (Georgetown University, priority 1998, dated 1999).
